Each block holds one molecule with its values, some of them ahead of it. *1 amine or outer side, *2 acyl side, *3 side chain or, on linkers, in order; H or OH if unused. Where a SMILES comes first, the peptide text is derived from it. Side-chain parts run from the residue outwards. [ ]: non-standard residue; d: D form. The star is where a group is joined. C20 diacid = O=C(O)CCCCCCCCCCCCCCCCCCC(=O)*; γGlu = O=C(O)[C@H](CCC(=O)[*:2])N[*:1]; AEEA = NCCOCCOCC(=O)O; Aib = CC(C)(N)C(=O)O
What was measured:
human CRF2a receptor = target: T1, human CRF2a receptor (Homo sapiens, UniProt Q13324); experiment: Activity at human CRF2a receptor, cAMP functional assay in TeloHEAC cells; assay type: cell-based; settings: TeloHEAC cells stably expressing human CRF2a receptor, relative to urocortin 2 (100 nM = 100%)
T1 construct: expressed in transfected cells; host or cells: TeloHEAC cells
T1 sequence (Q13324 1-411): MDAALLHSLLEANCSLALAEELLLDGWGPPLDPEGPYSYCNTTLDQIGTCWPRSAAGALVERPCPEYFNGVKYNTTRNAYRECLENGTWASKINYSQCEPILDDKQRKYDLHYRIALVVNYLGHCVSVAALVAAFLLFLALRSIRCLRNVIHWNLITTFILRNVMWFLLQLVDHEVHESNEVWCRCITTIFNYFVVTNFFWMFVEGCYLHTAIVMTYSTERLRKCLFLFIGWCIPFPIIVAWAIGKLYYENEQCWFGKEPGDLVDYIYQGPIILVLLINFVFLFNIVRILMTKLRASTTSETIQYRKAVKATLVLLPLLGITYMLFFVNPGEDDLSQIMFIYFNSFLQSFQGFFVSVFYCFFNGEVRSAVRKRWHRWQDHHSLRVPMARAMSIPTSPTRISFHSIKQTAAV
How it was run: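 TeloHEAC cells stably expressing human CRF2a (10000 cells/well) were treated with 16-point 1:2 compound dilutions in HBSS/20 mM HEPES with IBMX for 30 min at 37° C. cAMP was read by HTRF (665/620 nm ratio). EC50 was the concentration giving 50% activation, with 100 nM urocortin 2 set as 100%.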

CFR1R receptor = target: T2, CFR1R receptor (Homo sapiens, UniProt P34998); experiment: Activity at anti-target CFR1R receptor, cAMP assay in CRF1R-overexpression CHO-K1 cells; assay type: cell-based; settings: 100% = Sauvagine at 100 nM; for EC50: cAMP
T2 construct: host or cells: CHO-K1 (clone 2)
T2 sequence (P34998 24-415): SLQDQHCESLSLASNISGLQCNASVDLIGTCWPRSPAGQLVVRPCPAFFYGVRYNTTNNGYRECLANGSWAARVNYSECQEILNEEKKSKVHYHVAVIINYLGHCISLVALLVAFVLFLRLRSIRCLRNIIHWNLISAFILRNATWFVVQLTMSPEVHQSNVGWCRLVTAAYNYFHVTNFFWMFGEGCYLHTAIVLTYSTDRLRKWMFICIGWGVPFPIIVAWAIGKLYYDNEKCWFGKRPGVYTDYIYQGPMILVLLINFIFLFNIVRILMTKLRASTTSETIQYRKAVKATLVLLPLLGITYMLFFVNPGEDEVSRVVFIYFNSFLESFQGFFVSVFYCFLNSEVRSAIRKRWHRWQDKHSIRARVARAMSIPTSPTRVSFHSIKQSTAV
How it was run: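 Run as for the TeloHAEC line, except the full-activation control well received Sauvagine (100 nM) and final density was 4000 cells/well. Cells from clone 2 came from frozen aliquots of near-confluent cultures.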

rat CRF2 a = target: T3, rat CRF2 a (Rattus norvegicus, UniProt P47866); experiment: Activity at rat CRF2 a, cAMP assay in A7R5 rat aortic smooth muscle cells; assay type: cell-based; settings: 0% HSA, 100% = Sauvagine at 100 nM
T3 construct: host or cells: A7R5 rat aortic smooth muscle cells
T3 sequence (P47866 27-431 isoform P47866-2 limits assumed): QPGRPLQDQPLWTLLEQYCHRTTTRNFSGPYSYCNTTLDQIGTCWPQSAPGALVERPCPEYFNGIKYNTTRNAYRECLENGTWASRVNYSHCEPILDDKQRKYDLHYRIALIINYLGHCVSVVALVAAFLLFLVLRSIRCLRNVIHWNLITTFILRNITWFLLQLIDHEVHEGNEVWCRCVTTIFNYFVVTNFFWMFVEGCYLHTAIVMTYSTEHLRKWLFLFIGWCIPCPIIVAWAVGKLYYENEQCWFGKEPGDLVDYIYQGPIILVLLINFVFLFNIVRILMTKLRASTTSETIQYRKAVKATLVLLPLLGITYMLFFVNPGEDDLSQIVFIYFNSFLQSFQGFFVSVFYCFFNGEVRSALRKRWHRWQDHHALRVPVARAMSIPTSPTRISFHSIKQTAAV
Method: The A7R5 rat aortic smooth muscle cell line used in this study was purchased from ATCC.
Cells were grown in a 10 cm dish at 37° C./5% CO2 in medium (DMEM/10% FBS) to near confluence. At that stage, cells were harvested, resuspended to 10 million/mL in culture medium and with 5% DMSO. 1 mL vial aliquots were slowly frozen to −80° C. in isopropanol and then transferred in liquid nitrogen for storage.
These vials were used to run the experiment following the procedure reported in the previous paragraph, except for the compound used in the control well to define the 100% activation (Sauvagine at 100 nM) and the cell density (final cell density: 5000 cells/well).

[1] = target: T4, CRF1R (corticotropin-releasing factor receptor 1), on the CRF1R-overexpression CHO-K1 cell line clone 2 (UniProt P34998 24-415, limits assumed); experiment: cell-based or functional assay
T4 sequence (looked up): T2 sequence (P34998 24-415)

[2] = target: Rat CRF2 a (corticotropin-releasing factor receptor 2), on the A7R5 rat aortic smooth muscle cell line (rat, UniProt P47866 20-411); experiment: cell-based or functional assay
Sequence of Rat CRF2 a (corticotropin-releasing factor receptor 2), on the A7R5 rat aortic smooth muscle cell line (P47866 20-411): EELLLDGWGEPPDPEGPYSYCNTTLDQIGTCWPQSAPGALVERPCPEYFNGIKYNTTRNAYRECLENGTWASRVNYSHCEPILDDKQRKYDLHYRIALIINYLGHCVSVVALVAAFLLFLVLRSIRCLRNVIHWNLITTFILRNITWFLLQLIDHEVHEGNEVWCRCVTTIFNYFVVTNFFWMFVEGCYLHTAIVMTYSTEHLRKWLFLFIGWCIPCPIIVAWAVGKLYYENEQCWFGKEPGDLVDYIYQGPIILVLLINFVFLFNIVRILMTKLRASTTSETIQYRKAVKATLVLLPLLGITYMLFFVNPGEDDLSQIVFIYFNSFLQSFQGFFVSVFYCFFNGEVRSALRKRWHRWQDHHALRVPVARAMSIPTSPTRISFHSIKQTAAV

EC50 (human CRF2a receptor): 0.12 nM
Emax (% I) (CFR1R receptor): 13 % I
EC50 (CFR1R receptor): > 250 nM
EC50 (rat CRF2 a): 0.4 nM
Molecule: CC[C@H](C)[C@H](NC(C)=O)C(=O)N[C@H](C(=O)N[C@@H](CC(C)C)C(=O)N[C@@H](CO)C(=O)N[C@@H](CC(C)C)C(=O)N[C@@H](CC(=O)O)C(=O)N[C@@H](C(=O)N1CCC[C@H]1C(=O)N[C@H](C(=O)N[C@@H](CCCCN)C(=O)N[C@@H](CC(C)C)C(=O)N[C@@H](CCCCNC(=O)COCCOCCNC(=O)CC[C@H](NC(=O)CCCCCCCCCCCCCCCCCCC(=O)O)C(=O)O)C(=O)N[C@@H](CCCCN)C(=O)N[C@H](C(=O)N[C@@H](CC(C)C)C(=O)N[C@@H](CC(C)C)C(=O)N[C@@H](CCC(=O)O)C(=O)N[C@@H](CCC(N)=O)C(=O)N[C@@H](CCC(=O)O)C(=O)N[C@@H](CCCCN)C(=O)N[C@@H](CCC(N)=O)C(=O)N[C@@H](CCCCN)C(=O)N[C@@H](C)C(=O)N[C@@H](CCC(N)=O)C(=O)N[C@@H](CCCNC(=N)N)C(=O)N[C@@H](CCC(=O)O)C(=O)N[C@@H](CCC(N)=O)C(=O)N[C@@H](C)C(=O)N[C@@H](CCC(=O)O)C(=O)N[C@H](C(=O)N[C@@H](CC(N)=O)C(=O)NC(C)(C)C(=O)N[C@@H](CCC(N)=O)C(=O)N[C@H](C(=O)N[C@@H](CC(C)C)C(=O)N[C@@H](C)C(=O)N[C@@H](CCC(N)=O)C(=O)N[C@H](C(N)=O)C(C)C)[C@@H](C)CC)[C@@H](C)O)[C@@H](C)CC)[C@@H](C)CC)C(C)C)C(C)C [compound 232] (Ac-IVLSLD[dV]PIKLK([AEEA-γGlu-C20 diacid])KILLEQEKQKAQREQAETN[Aib]QILAQV-NH2)

EC50 (human CRF2a receptor): 0.11 nM
Emax (% I) (CFR1R receptor): 12 % I
EC50 (CFR1R receptor): > 250 nM
EC50 (rat CRF2 a): 0.09 nM
Molecule: CC[C@H](C)[C@H](NC(C)=O)C(=O)N[C@H](C(=O)N[C@@H](CC(C)C)C(=O)N[C@@H](CO)C(=O)N[C@@H](CC(C)C)C(=O)N[C@@H](CC(=O)O)C(=O)N[C@@H](C(=O)N1CCC[C@H]1C(=O)N[C@H](C(=O)N[C@@H](CCCCN)C(=O)N[C@@H](CC(C)C)C(=O)N[C@@H](CCCCNC(=O)COCCOCCNC(=O)COCCOCCNC(=O)CC[C@H](NC(=O)CCCCCCCCCCCCCCCCCCC(=O)O)C(=O)O)C(=O)N[C@@H](CCCCN)C(=O)N[C@H](C(=O)N[C@@H](CC(C)C)C(=O)N[C@@H](CC(C)C)C(=O)N[C@@H](CCC(=O)O)C(=O)N[C@@H](CCC(N)=O)C(=O)N[C@@H](CCC(=O)O)C(=O)N[C@@H](CCCCN)C(=O)N[C@@H](CCC(N)=O)C(=O)N[C@@H](CCCCN)C(=O)N[C@@H](CCCCN)C(=O)N[C@@H](CCC(N)=O)C(=O)N[C@@H](CCCNC(=N)N)C(=O)N[C@@H](CCC(=O)O)C(=O)N[C@@H](CCC(N)=O)C(=O)N[C@@H](C)C(=O)N[C@@H](CCC(=O)O)C(=O)N[C@H](C(=O)N[C@@H](CC(N)=O)C(=O)NC(C)(C)C(=O)N[C@@H](CCC(N)=O)C(=O)N[C@H](C(=O)N[C@@H](CC(C)C)C(=O)N[C@@H](C)C(=O)N[C@@H](CCC(N)=O)C(=O)N[C@H](C(N)=O)C(C)C)[C@@H](C)CC)[C@@H](C)O)[C@@H](C)CC)[C@@H](C)CC)C(C)C)C(C)C [compound 238] (Ac-IVLSLD[dV]PIKLK([AEEA-AEEA-γGlu-C20 diacid])KILLEQEKQKKQREQAETN[Aib]QILAQV-NH2)

EC50 (human CRF2a receptor): 0.13 nM
Emax (% I) (CFR1R receptor): 8 % I
EC50 (CFR1R receptor): > 250 nM
EC50 (rat CRF2 a): 0.09 nM
Molecule: CC[C@H](C)[C@H](NC(C)=O)C(=O)N[C@H](C(=O)N[C@@H](CC(C)C)C(=O)N[C@@H](CO)C(=O)N[C@@H](CC(C)C)C(=O)N[C@@H](CC(=O)O)C(=O)N[C@@H](C(=O)N1CCC[C@H]1C(=O)N[C@H](C(=O)N[C@@H](CCCCN)C(=O)N[C@@H](CC(C)C)C(=O)N[C@@H](CCCCNC(=O)CC[C@H](NC(=O)CC[C@H](NC(=O)CCCCCCCCCCCCCCCCCCC(=O)O)C(=O)O)C(=O)O)C(=O)N[C@@H](CCCCN)C(=O)N[C@H](C(=O)N[C@@H](CC(C)C)C(=O)N[C@@H](CC(C)C)C(=O)N[C@@H](CCC(=O)O)C(=O)N[C@@H](CCC(N)=O)C(=O)N[C@@H](CCC(=O)O)C(=O)N[C@@H](CCCCN)C(=O)N[C@@H](CCC(N)=O)C(=O)N[C@@H](CCCCN)C(=O)N[C@@H](CCCCN)C(=O)N[C@@H](CCC(N)=O)C(=O)N[C@@H](CCCNC(=N)N)C(=O)N[C@@H](CCC(=O)O)C(=O)N[C@@H](CCC(N)=O)C(=O)N[C@@H](C)C(=O)N[C@@H](CCC(=O)O)C(=O)N[C@H](C(=O)N[C@@H](CC(N)=O)C(=O)NC(C)(C)C(=O)N[C@@H](CCC(N)=O)C(=O)N[C@H](C(=O)N[C@@H](CC(C)C)C(=O)N[C@@H](C)C(=O)N[C@@H](CCC(N)=O)C(=O)N[C@H](C(N)=O)C(C)C)[C@@H](C)CC)[C@@H](C)O)[C@@H](C)CC)[C@@H](C)CC)C(C)C)C(C)C [compound 243] (Ac-IVLSLD[dV]PIKLK([γGlu-γGlu-C20 diacid])KILLEQEKQKKQREQAETN[Aib]QILAQV-NH2)

EC50 [nM] (cAMP, CRF1R-overexpression CHO-K1 cells) [1]: > 250 nM
Emax (% I) (cAMP, 100% = Sauvagine at 100 nM) [1]: 8 % I
EC50 [nM] 0% HSA (cAMP, A7R5 rat aortic smooth muscle cells) [2]: 1.77 nM
B1: peptide of SEQ ID NO: 244 (peptide)
peptide: Ac-IVLSLD[dV]PIKLK([γGlu-γGlu-C20 diacid])KILLEQEKQKAQREQAETN[Aib]QILAQV-NH2
SMILES: CC[C@H](C)[C@H](NC(C)=O)C(=O)N[C@H](C(=O)N[C@@H](CC(C)C)C(=O)N[C@@H](CO)C(=O)N[C@@H](CC(C)C)C(=O)N[C@@H](CC(=O)O)C(=O)N[C@@H](C(=O)N1CCC[C@H]1C(=O)N[C@H](C(=O)N[C@@H](CCCCN)C(=O)N[C@@H](CC(C)C)C(=O)N[C@@H](CCCCNC(=O)CC[C@H](NC(=O)CC[C@H](NC(=O)CCCCCCCCCCCCCCCCCCC(=O)O)C(=O)O)C(=O)O)C(=O)N[C@@H](CCCCN)C(=O)N[C@H](C(=O)N[C@@H](CC(C)C)C(=O)N[C@@H](CC(C)C)C(=O)N[C@@H](CCC(=O)O)C(=O)N[C@@H](CCC(N)=O)C(=O)N[C@@H](CCC(=O)O)C(=O)N[C@@H](CCCCN)C(=O)N[C@@H](CCC(N)=O)C(=O)N[C@@H](CCCCN)C(=O)N[C@@H](C)C(=O)N[C@@H](CCC(N)=O)C(=O)N[C@@H](CCCNC(=N)N)C(=O)N[C@@H](CCC(=O)O)C(=O)N[C@@H](CCC(N)=O)C(=O)N[C@@H](C)C(=O)N[C@@H](CCC(=O)O)C(=O)N[C@H](C(=O)N[C@@H](CC(N)=O)C(=O)NC(C)(C)C(=O)N[C@@H](CCC(N)=O)C(=O)N[C@H](C(=O)N[C@@H](CC(C)C)C(=O)N[C@@H](C)C(=O)N[C@@H](CCC(N)=O)C(=O)N[C@H](C(N)=O)C(C)C)[C@@H](C)CC)[C@@H](C)O)[C@@H](C)CC)[C@@H](C)CC)C(C)C)C(C)C
